The source of these data is patent US10428062B2, “Geminal substituted aminobenzisoxazole compounds as agonists of α7-nicotinic acetylcholine receptors” (Forum Pharmaceuticals, Inc., priority 2015, dated 2019).

Structures are written as SMILES. Counter-ions that a name gives are not always drawn. Like-named read-outs stand apart in the source and are kept apart here. Some results are limits rather than exact numbers.

Experiment [1] concerns the target T1, human 5-HT3 serotonin receptors (Homo sapiens, UniProt P46098).
T1 sequence (P46098 24-478): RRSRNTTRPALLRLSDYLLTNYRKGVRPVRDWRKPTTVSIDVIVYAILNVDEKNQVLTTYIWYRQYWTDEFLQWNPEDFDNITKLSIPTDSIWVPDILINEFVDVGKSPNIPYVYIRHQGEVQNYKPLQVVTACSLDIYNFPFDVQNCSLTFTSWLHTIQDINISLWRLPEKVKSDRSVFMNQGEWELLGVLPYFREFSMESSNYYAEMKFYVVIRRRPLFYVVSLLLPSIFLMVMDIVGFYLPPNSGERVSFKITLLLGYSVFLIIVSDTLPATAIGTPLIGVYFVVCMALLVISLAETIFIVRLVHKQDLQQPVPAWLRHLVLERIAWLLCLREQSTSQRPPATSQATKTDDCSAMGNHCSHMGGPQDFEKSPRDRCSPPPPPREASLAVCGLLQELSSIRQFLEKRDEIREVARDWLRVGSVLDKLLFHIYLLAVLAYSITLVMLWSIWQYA
The experiment can be described thus: [3H]BRL 43694 competition binding assay (Cerep).

Experiment [2] concerns the target recombinantly expressed human α7-nAChR (Homo sapiens, UniProt P36544). The settings on record: [125I] α-BTX radioligand, Feuerbach et al., Br. J. Pharmacol., 2014, read-out: Ki (lit); cited from earlier work.
For the next experiment, the target named is human α7 nAChR (Homo sapiens, UniProt P36544). Type of experiment: binding. The settings on record: above described assay provided by Cerep.
Sequence of human α7 nAChR (P36544 23-502): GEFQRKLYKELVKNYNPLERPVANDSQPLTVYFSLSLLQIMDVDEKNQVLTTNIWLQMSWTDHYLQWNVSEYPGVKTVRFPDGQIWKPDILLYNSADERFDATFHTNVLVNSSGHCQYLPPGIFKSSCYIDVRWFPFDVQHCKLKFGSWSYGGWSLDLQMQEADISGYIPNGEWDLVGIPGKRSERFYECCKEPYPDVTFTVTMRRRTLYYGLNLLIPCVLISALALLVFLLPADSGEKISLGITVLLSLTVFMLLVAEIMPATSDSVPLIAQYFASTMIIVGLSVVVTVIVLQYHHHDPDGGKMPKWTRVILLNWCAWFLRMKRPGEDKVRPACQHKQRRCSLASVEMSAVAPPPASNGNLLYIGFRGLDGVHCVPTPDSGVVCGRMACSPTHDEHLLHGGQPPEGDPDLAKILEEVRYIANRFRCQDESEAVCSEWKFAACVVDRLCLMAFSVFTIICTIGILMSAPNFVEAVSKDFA
[3] abbreviates: CHO cell membranes expressing human 5-HT3 receptors, [3H]BRL 43694, 120 min at room temperature, read-out: h-5HT3 Ki.

Sequence of recombinantly expressed human α7-nAChR (P36544 23-502): as above

By Ki is commonly meant the dissociation constant of the complex between target and ligand, obtained from inhibition or displacement. With `Clc1ccc2c(NC3C4CCN(CC4)C34CC4)noc2c1` (racemic) [rac-16, 6-chloro-N-(1′-azaspiro[cyclopropane-1,2′-bicyclo[2.2.2]octan]-3′-yl)benzo[d]isoxazol-3-amine hydrochloride], the affinity in experiment [1], expressed as Ki, was 1800 nM.
Regarding `CC1(C)[C@H](Nc2noc3c(F)c(Cl)ccc23)C2CCN1CC2` [Compound (R)-2, (R)-6-chloro-N-(2,2-dimethylquinuclidin-3-yl)-7-fluorobenzo[d]isoxazol-3-amine hydrochloride], in experiment [1] (setting [3]), the Ki was found to be 3150 nM.
Still for that read-out and setting: then `Cc1c(Cl)ccc2c(N[C@@H]3C4CCN(CC4)C3(C)C)noc12` [Compound (R)-10, (R)-6-chloro-N-(2,2-dimethylquinuclidin-3-yl)-7-methylbenzo[d]isoxazol-3-amine hydrochloride], with 380 nM; and `FC(F)(F)c1c(Cl)ccc2c(N[C@@H]3C4CCN(CC4)C34CC4)noc12` [Compound (R)-29, (R)-6-chloro-N-(1′-azaspiro[cyclopropane-1,2′-bicyclo[2.2.2]octan]-3′-yl)-7-(trifluoromethyl)benzo[d]isoxazol-3-amine hydrochloride], with 4300 nM.
Still for that read-out and setting: then `Cc1ccc2c(N[C@@H]3C4CCN(CC4)C34CC4)noc2c1F` [Compound (R)-22, (R)-7-fluoro-6-methyl-N-(1′-azaspiro[cyclopropane-1,2′-bicyclo[2.2.2]octan]-3′-yl)benzo[d]isoxazol-3-amine hydrochloride], with 540 nM.
Same read-out and setting: then `COc1ccc2c(N[C@@H]3C4CCN(CC4)C3(C)C)noc2c1` [Compound (R)-3, (R)—N-(2,2-dimethylquinuclidin-3-yl)-6-methoxybenzo[d]isoxazol-3-amine hydrochloride], with over 10000 nM; and `COc1ccc2c(N[C@@H]3C4CCN(CC4)C34CC4)noc2c1` [Compound (R)-18, (R)-6-methoxy-N-(1′-azaspiro[cyclopropane-1,2′-bicyclo[2.2.2]octan]-3′-yl)benzo[d]isoxazol-3-amine hydrochloride], with over 10000 nM; and `Cc1ccc2c(N[C@@H]3C4CCN(CC4)C34CC4)noc2c1` [Compound (R)-21, (R)-6-methyl-N-(1′-azaspiro[cyclopropane-1,2′-bicyclo[2.2.2]octan]-3′-yl) benzo[d]isoxazol-3-amine hydrochloride], with 1600 nM.
In the case of `Clc1ccc2c(N[C@@H]3C4CCN(CC4)C34CC4)noc2c1` [Compound (R)-16, (R)-6-chloro-N-(1′-azaspiro[cyclopropane-1,2′-bicyclo[2.2.2]octan]-3′-yl)benzo[d]isoxazol-3-amine], the Ki in experiment [1] (setting [3]) turned out to be 1630 nM.
Regarding `Cc1ccc2c(N[C@@H]3C4CCN(CC4)C3(C)C)noc2c1F` [Compound (R)-7, (R)—N-(2,2-dimethylquinuclidin-3-yl)-7-fluoro-6-methylbenzo[d]isoxazol-3-amine hydrochloride], the Ki in experiment [1] (setting [3]) was determined as 2100 nM.
Still for that read-out and setting: then `CC1(C)C(Nc2noc3cc(Cl)ccc23)C2CCN1CC2` (racemic) [rac-1, 6-chloro-N-(2,2-dimethylquinuclidin-3-yl)benzo[d]isoxazol-3-amine hydrochloride], with 2700 nM; and `CC1(C)[C@H](Nc2noc3c(Cl)c(F)ccc23)C2CCN1CC2` [Compound (R)-8, (R)-7-chloro-N-(2,2-dimethylquinuclidin-3-yl)-6-fluorobenzo[d]isoxazol-3-amine hydrochloride], with 170 nM.
Same read-out and setting: the same measure for `CCOc1c(Cl)ccc2c(N[C@@H]3C4CCN(CC4)C3(C)C)noc12` [Compound (R)-12, (R)-6-chloro-N-(2,2-dimethylquinuclidin-3-yl)-7-ethoxybenzo[d]isoxazol-3-amine hydrochloride]: over 10000 nM; for `CC1(C)[C@H](Nc2noc3c(C(F)(F)F)c(Cl)ccc23)C2CCN1CC2` [Compound (R)-14, (R)-6-chloro-N-(2,2-dimethylquinuclidin-3-yl)-7-(trifluoromethyl)benzo[d]isoxazol-3-amine hydrochloride]: over 10000 nM.
The same measure, in the same setting: the same measure for `CC1(C)[C@H](Nc2noc3cc(Cl)ccc23)C2CCN1CC2` [Compound (R)-1, (R)-6-chloro-N-(2,2-dimethylquinuclidin-3-yl)benzo[d]isoxazol-3-amine]: 2600 nM; for `CCOc1c(Cl)ccc2c(N[C@@H]3C4CCN(CC4)C34CC4)noc12` [Compound (R)-27, (R)-6-chloro-7-ethoxy-N-(1′-azaspiro[cyclopropane-1,2′-bicyclo[2.2.2]octan]-3′-yl)benzo[d]isoxazol-3-amine hydrochloride]: 5600 nM; for `Cc1cc2onc(N[C@@H]3C4CCN(CC4)C34CC4)c2cc1F` [Compound (R)-24, (R)-5-fluoro-6-methyl-N-(1′-azaspiro[cyclopropane-1,2′-bicyclo[2.2.2]octan]-3′-yl) benzo[d]isoxazol-3-amine hydrochloride]: 3100 nM.
As to `CC1(C)[C@H](Nc2noc3cc(Cl)c(F)cc23)C2CCN1CC2` [Compound (R)-11, (R)-6-chloro-N-(2,2-dimethylquinuclidin-3-yl)-5-fluorobenzo[d]isoxazol-3-amine hydrochloride], the inhibition constant Ki in experiment [1] (setting [3]) was over 10000 nM.
Still for that read-out and setting: then `CC1(C)[C@H](Nc2noc3c(Cl)c(Cl)ccc23)C2CCN1CC2` [Compound (R)-4, (R)-6,7-dichloro-N-(2,2-dimethylquinuclidin-3-yl)benzo[d]isoxazol-3-amine hydrochloride], with 130 nM.
In the case of `Cc1ccc(-c2ccc(OC3CN4CCC3CC4)cn2)cc1` (centres unmarked) [AQW051], the Ki in experiment [2] was 28 nM; on human α7 nAChR it was 255 nM.
`COc1c(Cl)ccc2c(N[C@@H]3C4CCN(CC4)C34CC4)noc12` [Compound (R)-20, (R)-6-chloro-7-methoxy-N-(1′-azaspiro[cyclopropane-1,2′-bicyclo[2.2.2]octan]-3′-yl)benzo[d]isoxazol-3-amine hydrochloride]: the Ki in experiment [1] (setting [3]) amounted to 200 nM.
The same measure, in the same setting: the same measure for `Cc1ccc2c(N[C@@H]3C4CCN(CC4)C3(C)C)noc2c1Cl` [Compound (R)-13, (R)-7-chloro-N-(2,2-dimethylquinuclidin-3-yl)-6-methylbenzo[d]isoxazol-3-amine hydrochloride]: 150 nM.
Regarding `Cc1ccc2c(N[C@@H]3C4CCN(CC4)C34CC4)noc2c1Cl` [Compound (R)-28, (R)-7-chloro-6-methyl-N-(1′-azaspiro[cyclopropane-1,2′-bicyclo[2.2.2]octan]-3′-yl)benzo[d]isoxazol-3-amine hydrochloride], in experiment [1], affinity was put at a Ki of 66 nM.
On to `Fc1c(Cl)ccc2c(N[C@@H]3C4CCN(CC4)C34CC4)noc12` [Compound (R)-17, (R)-6-chloro-7-fluoro-N-(1′-azaspiro[cyclopropane-1,2′-bicyclo[2.2.2]octan]-3′-yl)benzo[d]isoxazol-3-amine hydrochloride], for which, in experiment [1] (setting [3]), the Ki amounted to 920 nM.
Same read-out and setting: the same measure for `Cc1ccc2c(N[C@@H]3C4CCN(CC4)C3(C)C)noc2c1` [Compound (R)-6, (R)—N-(2,2-dimethylquinuclidin-3-yl)-6-methylbenzo[d]isoxazol-3-amine hydrochloride]: 3500 nM.
Still for that read-out and setting: then `Fc1cc2c(N[C@@H]3C4CCN(CC4)C34CC4)noc2cc1Cl` [Compound (R)-26, (R)-6-chloro-5-fluoro-N-(1′-azaspiro[cyclopropane-1,2′-bicyclo[2.2.2]octan]-3′-yl)benzo[d]isoxazol-3-amine hydrochloride], with 2800 nM; and `Cc1c(Cl)ccc2c(N[C@@H]3C4CCN(CC4)C34CC4)noc12` [Compound (R)-25, (R)-6-chloro-7-methyl-N-(1′-azaspiro[cyclopropane-1,2′-bicyclo[2.2.2]octan]-3′-yl)benzo[d]isoxazol-3-amine hydrochloride], with 170 nM; and `Cc1cc2onc(N[C@@H]3C4CCN(CC4)C3(C)C)c2cc1F` [Compound (R)-9, (R)—N-(2,2-dimethylquinuclidin-3-yl)-5-fluoro-6-methylbenzo[d]isoxazol-3-amine hydrochloride], with over 10000 nM.
In experiment [1], `Clc1ccc2c(N[C@@H]3C4CCN(CC4)C34CC4)noc2c1Cl` [(R)-19, (R)-6,7-dichloro-N-(1′-azaspiro[cyclopropane-1,2′-bicyclo[2.2.2]octan]-3′-yl)benzo[d]isoxazol-3-amine hydrochloride] displayed a Ki of 100 nM.
As to `COc1c(Cl)ccc2c(N[C@@H]3C4CCN(CC4)C3(C)C)noc12` [Compound (R)-5, (R)-6-chloro-N-(2,2-dimethylquinuclidin-3-yl)-7-methoxybenzo[d]isoxazol-3-amine hydrochloride], in experiment [1] (setting [3]), the Ki came to 450 nM.
In the case of `Fc1ccc2c(N[C@@H]3C4CCN(CC4)C34CC4)noc2c1Cl` [Compound (R)-23, (R)-7-chloro-6-fluoro-N-(1′-azaspiro[cyclopropane-1,2′-bicyclo[2.2.2]octan]-3′-yl)benzo[d]isoxazol-3-amine hydrochloride], the Ki in experiment [1] (setting [3]) was 110 nM.
